A short description of one series: Pharmacokinetic analysis. In kind it is in vivo, Sprague–Dawley rats. The settings on record: for AUC(0-inf) / clearance / half-life / Vd / Cmax / Tmax: male, Sprague-Dawley, plasma; for AUC(0-inf): heading: AUC0-∞, Table S5, rat; for clearance / half-life / Vd / Cmax / Tmax / AUC0-∞: rat; for Vd: read-out: Vss. As to the method: All animal studies and procedures were approved by the Animal Ethics Committee of College of Chemistry and Chemical Engineering, Henan Normal University, China. Male Sprague–Dawley rats (220 ± 10 g, Shanghai Yuanxin Biological Co., Ltd., Shanghai, China) were used to evaluate drug pharmacokinetic properties. Briefly, compound 33a or 36b was dissolved in PBS containing 10% DMSO and 20% castor oil. Rats were treated with 1 mg/kg of compound 33a or 36b for intravenous injection and 2 mg/kg for oral intragastric administration. Blood samples were collected from each rat at 0, 0.083, 0.25, 0.5, 1, 2, 4, 6, 8, 12, and 24 h. Plasma was isolated from the blood samples by centrifugation (1200 rpm, 4 °C, 10 min. ThermoFisher Scientific, Thermo Electron LED GmbH, Zweigniederlassung Osterode Am Kalkberg, Osterode am Harz, Germany). Sample concentrations were determined by LC-MS/MS (API 4000, AB SCIEX) based on a standard curve. All data were calculated by Excel software.

A further series has as its target c-MYC (Homo sapiens, UniProt P01106). Put plainly: Drug affinity responsive target stability (DARTS) assay. The class given is binding. On the set-up: HCT116 cells were lysed with mammalian protein extraction reagent (M-PER); endogenous in cells; host or cells: HCT116. Particulars: HCT116 lysate, pronase, 0-640 μmol/L. As to the method:
HCT116 cells were lysed with mammalian protein extraction reagent (M-PER), centrifuged, and quantified by BCA protein assay. […] Proteolysis was performed by adding pronase solution at a ratio of 1:3200 for 30 min at room temperature and then stopped by adding SDS-PAGE sample loading buffer and boiling at 100 °C for 5 min. c-MYC protein was analyzed by Western blot.

The subject of series [1] is HCT116 cells. Briefly: Cell cycle assay (PI, flow cytometry). In kind it is cell-based, human. The settings on record: 48 h. As to the method:
Cells were seeded in 6-well plates (5 × 10^5 cells/well). The following day, defined concentrations of compound 33a or 36b were added to the wells for 48 h at 37 °C with 5% CO2. The cells were collected and fixed in ice-cold 70% alcohol overnight. Then the cells were stained in propidium iodide (PI) dye for 15 min in the dark and the cell DNA contents were analyzed via flow cytometry (Becton, Dickinson Company, New Jersey, USA).
A general note: In flow cytometry, cells or beads pass a laser one at a time.

The subject of series [2] is MCF-7 (human breast cancer). Put plainly: CCK-8 anti-proliferation assay, MCF-7. The settings on record: Homo sapiens, MCF7; CCK-8, 48 h, mean ± SD. In kind it is cell-based. As to the method:
(§1) To evaluate their spectrum of anti-proliferative activity, further CCK-8 assays were carried out with the selected compounds (5a/5b, 8a/8b, 33a/33b, and 36a/36b) on MCF-7 (human breast cancer), A375 (human malignant melanoma), DU145 (human prostate cancer), and CT26 (mouse colon cancer) cell lines. The selected compounds had moderate to potent antitumor activity on the four cell lines, indicating their broad spectrum of antitumor activity (Table 5).
(§2) MCF-7, A375, and HeLa cells were cultured in DMEM, HCT116 cells were cultured in McCoy's 5A medium, and DU145 and CT26 were cultured in RPMI 1640 with 10% FBS, 1% penicillin-streptomycin solution (10,000 U/mL penicillin and 10,000 μg/mL streptomycin) at 37 °C under 5% CO2. The cells were seeded in 96-well plates (4 × 10^3 cells/well) overnight and then treated with various concentrations (1–50 μmol/L) of the compound. After 48 h, the cell viability was measured by CCK-8 assay. The absorbance of each well was measured using a microplate reader (Multiskan FC, Thermo Fisher Scientific, Massachusetts, USA) at 450 nm wavelength. Assays were performed in triplicate. Compound concentrations that inhibited cell growth by 50% (IC50) were calculated from the dose–response curves of each cell line. Data are mean ± SD values from three independent experiments.
In general terms: Tetrazolium dyes change colour on reduction, which living cells bring about.

Series [3] has as its system HCT116 cells. Briefly: EdU assay. In kind it is cell-based, human. The settings on record: 48 h. The method, then: HCT116 cells were seeded in 96-well plates (4 × 10^4 cells/well) overnight and then the cells were treated with various concentrations of compound 33a or 36b. After 48 h, the experiment operation process was performed according to the manufacturer's instructions. Images were obtained with a Leica DMIL fluorescence microscope (Leica Microsystems, Wetzlar, Germany).

Series [4] relates to HCT116 cells. Put plainly: Colony formation. In kind it is cell-based, human. The settings on record: 48 h treatment, then 14 days. As to the method:
HCT116 cells were seeded in 6-well plates (1.5 × 10^3 cells/well). Various concentrations of compound 33a or 36b were added to the wells for 48 h. The culture medium was changed every 72 h, at the end of 14 days, cells were fixed with methanol for 30 min and stained with 0.1% crystal violet staining solution for 30 min at room temperature, then washed three times in PBS and allowed to dry. Photographs were then taken.

Series [5] has as its system HCT116 cells. Briefly: Transwell invasion assay. Particulars: 24 h. In kind it is cell-based, human. As to the method:
A transwell chamber (24-well) (Corning, New York, USA) was coated with Matrigel (BD Biosciences, New Jersey, USA), and 1 × 10^5 cells per well were seeded in the upper chamber in serum-free medium and treated with defined doses of compound 33a or 36b. The complete medium was placed in the lower chamber. After 24 h, the cells penetrating through the pores were stained with 0.1% crystal violet solution and observed with a Leica DMIL fluorescence microscope (Leica Microsystems).

Series [6] concerns HCT116 cells. Briefly: CCK-8 anti-proliferation assay, HCT116. In kind it is cell-based, human. The settings on record: Homo sapiens, HCT-116, 48 h, CCK-8, 48 h, mean ± SD, three independent experiments. Summed up:
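Cells seeded at 4 × 10^3/well overnight (HCT116 in McCoy's 5A, HeLa in DMEM, 10% FBS), then treated with compound at 1–50 μmol/L for 48 h. CCK-8 absorbance at 450 nm; IC50 from dose–response curves, mean ± SD of three independent experiments.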

The subject of series [7] is HCT116 cells. Briefly: Wound healing assay. In kind it is cell-based, human. Particulars: 24 h. As to the method: HCT116 cells were seeded in 6-well plates (6 × 10^5 cells/well) to full confluence and then an artificial wound was created in the cell monolayer using a 200 μl pipette tip. Images of wound closure were captured at 0 and 24 h using a Leica DMIL fluorescence microscope (Leica Microsystems). The percentage of wound closure was calculated using Image J software.

In series [8] the test system is CT26 (mouse colon cancer). Put plainly: CCK-8 anti-proliferation assay, CT26. The class given is cell-based. The settings on record: Mus musculus, CT26; CCK-8, 48 h, mean ± SD. The method, then: as §1, §2

Sequence of c-MYC (P01106 whole entry): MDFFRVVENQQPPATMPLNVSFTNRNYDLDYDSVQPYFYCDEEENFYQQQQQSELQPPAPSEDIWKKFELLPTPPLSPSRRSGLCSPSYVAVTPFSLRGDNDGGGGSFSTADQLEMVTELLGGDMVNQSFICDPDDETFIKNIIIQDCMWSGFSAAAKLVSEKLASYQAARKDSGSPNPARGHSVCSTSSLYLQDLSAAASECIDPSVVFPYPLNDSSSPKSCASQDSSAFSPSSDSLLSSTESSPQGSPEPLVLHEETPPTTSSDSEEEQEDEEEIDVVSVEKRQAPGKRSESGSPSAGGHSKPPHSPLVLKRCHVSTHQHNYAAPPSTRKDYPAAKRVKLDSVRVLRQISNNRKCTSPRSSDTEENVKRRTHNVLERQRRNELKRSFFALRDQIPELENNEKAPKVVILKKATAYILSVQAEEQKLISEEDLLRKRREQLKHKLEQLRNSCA

Usually AUC(0-inf) stands for the area under the concentration-time curve extrapolated to infinity. A high value points to more exposure. As a reminder, the clearance is a measure of how efficiently the substance is removed, as volume per time. A word on the half-life: it is how long it takes for the measured level to halve. A lower half-life goes with fast loss. As a reminder, the Cmax is the maximum level reached in the sampled fluid or tissue. Broadly, the Tmax is the time at which the peak concentration occurs. A word on the IC50: it is the midpoint of a concentration-inhibition curve. Low values mean greater potency in that assay, high ones weaker potency in that assay. On to `CCCSc1nc(F)nc2c1ncn2[C@@]1(C(=O)OCC)CSC[C@@H]1O` (relative stereo) [36b], for which the AUC(0-inf) in “Pharmacokinetic analysis” (1 mg/kg, IV, 1 mg/kg) turned out to be 8800 ng·h/mL; in “Pharmacokinetic analysis” (2 mg/kg, oral, 2 mg/kg), 1800 ng·h/mL. Moreover, the clearance in the series “Pharmacokinetic analysis” (IV, 1 mg/kg) was 1.89 mL/min/kg. In addition, the half-life was 4.9 h in the series “Pharmacokinetic analysis” (IV, 1 mg/kg) and 4.1 h in the series “Pharmacokinetic analysis” (oral (i.g.), 2 mg/kg). The Vd in the series “Pharmacokinetic analysis” (IV, 1 mg/kg) is 3.54 L/kg. In the series “Pharmacokinetic analysis” (oral (i.g.), 2 mg/kg), this molecule showed a Cmax of 276 ng/mL. Further, the Tmax in the series “Pharmacokinetic analysis” (oral (i.g.), 2 mg/kg) amounted to 4 h. Besides, the “stability of c-MYC against proteolysis” value at c-MYC is reported as “increase the stability of c-MYC in the process of protease hydrolysis”. Further, the “G2/M cells” value with HCT116 cells [1] was “increased the percentage of G2/M cells in a dose-dependent manner”. In addition, the IC50 in series [2] turned out to be 14100 ± 1240 nM; with HCT116 cells [6], 490 ± 80 nM; in series [8], 850 ± 90 nM. Further, the EdU-positive cells result in the series with HCT116 cells [3] was “significantly fewer EdU-positive cells than in the control group”. Also, the colony formation result in the series with HCT116 cells [4] is recorded as “reduce the colony formation number in a dose-dependent manner”. For the same molecule, the invasion entry in the series on HCT116 cells [5] is recorded as “distinctly reduced the number of HCT116 cells passing through the matrix membrane”. The wound healing result in the series with HCT116 cells [7] is reported as “significantly delay the wound healing ability of HCT116 cells in a dose-dependent manner”.
On to `CCOC(=O)[C@]1(n2cnc3c(N4CCCCC4)nc(F)nc32)CSC[C@H]1O` (racemic) [33a], for which, in the series “Pharmacokinetic analysis” (IV, 1 mg/kg), the clearance was 5.1 mL/min/kg, the half-life is 5 h, the Vd turned out to be 2.15 L/kg and the AUC0-∞ worked out at 3270 ng·h/mL. Besides, in the series “Pharmacokinetic analysis” (oral (i.g.), 2 mg/kg), the highest level (Cmax) was 301 ng/mL, the Tmax was found to be 4 h, the half-life was 6.8 h and the AUC0-∞ is 3310 ng·h/mL. Moreover, the “stability of c-MYC against proteolysis” value at c-MYC is “increase the stability of c-MYC in the process of protease hydrolysis”. Further, in the series on HCT116 cells [1], the “G2/M cells” value is “increased the percentage of G2/M cells in a dose-dependent manner”. Further, the IC50 in [2] turned out to be 8450 ± 1030 nM. The EdU-positive cells result in the series on HCT116 cells [3] is “significantly fewer EdU-positive cells than in the control group”. For the same molecule, the colony formation entry in the series with HCT116 cells [4] is given as “reduce the colony formation number in a dose-dependent manner”. Further, the invasion entry in the series with HCT116 cells [5] was “distinctly reduced the number of HCT116 cells passing through the matrix membrane”. In the series with HCT116 cells [6], this molecule registered a half-maximal inhibitory concentration (IC50) of 270 ± 10 nM. Further, the wound healing result with HCT116 cells [7] is recorded as “significantly delay the wound healing ability of HCT116 cells in a dose-dependent manner”. In [8], this molecule returned an IC50 of 570 ± 130 nM.
